The text below walks through data of patent US6689792B2, “Antipsychotic indolyl derivatives” (Wyeth, priority 1998, dated 2004).

One series has as its target T1, human 5HT1A receptor (Homo sapiens, UniProt P08908).
T1 construct: expressed in transfected cells
T1 sequence (P08908 1-422): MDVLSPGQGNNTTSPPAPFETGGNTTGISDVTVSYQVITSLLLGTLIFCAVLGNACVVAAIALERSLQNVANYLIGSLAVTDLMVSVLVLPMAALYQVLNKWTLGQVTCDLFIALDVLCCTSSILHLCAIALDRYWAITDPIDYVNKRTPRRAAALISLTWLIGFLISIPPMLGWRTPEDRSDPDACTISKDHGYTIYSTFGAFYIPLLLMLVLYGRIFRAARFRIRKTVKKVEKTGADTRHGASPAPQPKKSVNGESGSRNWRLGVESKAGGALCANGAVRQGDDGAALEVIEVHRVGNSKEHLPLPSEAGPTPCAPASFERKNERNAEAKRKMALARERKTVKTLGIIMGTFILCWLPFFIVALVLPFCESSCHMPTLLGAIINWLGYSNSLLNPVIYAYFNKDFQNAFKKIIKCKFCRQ
Briefly: [3H] 8-OH-DPAT displacement binding in CHO cells transfected with human 5HT1A receptor. Conditions: [3H] 8-OH-DPAT 1.5 nM. On the procedure:
8-OH-DPAT binding in CHO cells stabily transfected with human 5HT1A receptor. Stabily transfected CHO cells are grown in DMEM containing 10% heat inactivated FBS and non-essential amino acids. Cells are scraped off the plate, transferred to centrifuge tubes, and washed twice by centrifugation (2000 rpm for 10 min., 4° C.) in buffer (50 mM Tris pH 7.5). The resulting pellets are aliquoted and placed at −80° C. On the day of assay, the cells are thawed on ice and resuspended in buffer. The binding assay is performed in a 96 well microtiter plate in a total volume of 250 μL. […] Following a 30 minute incubation at room temperature, the reaction is terminated by the addition of ice cold buffer and rapid filtration through a GF/B filter presoaked for 30 minutes in 0.5% PEI.

A further series has as its target T2, serotonin transporter (Rattus norvegicus, UniProt P31652).
T2 construct: frontal cortical membranes prepared from male S.D. rats; from tissue; host or cells: frontal cortical membranes of male Sprague-Dawley rats
Description: 3H-Paroxetine binding to rat frontal cortical membranes. Conditions: read-out: SSRi % Inhibition (rat brain) at 0.1 μM. As to the method:
^3H-Paroxetine binding to assess affinity of drugs for the serotonin transporter
A protocol similar to that used by Cheetham et al. (Neuropharmacol. 32:737, 1993) was used to determine the affinity of compounds for the serotonin transporter. Briefly, frontal cortical membranes prepared from male S.D. rats were incubated with ^3H-paroxetine (0.1 nM) for 60 min at 25° C. All tubes also contained either vehicle, test compound (one to eight concentrations), or a saturating concentration of fluoxetine (10 μM) to define […]. All reactions are terminated by the addition of ice cold Tris buffer followed by rapid filtration using a Tom Tech filtration device to separate bound from free ^3H-paroxetine. Bound radioactivity was quantitated using a Wallac 1205 Beta Plate® counter. Results achieved are expressed below as % inhibition of Paroxetine binding at a given concentration.

Series [1] has as its target T3, human dopamine D2 receptor (Homo sapiens, UniProt P14416).
T3 construct: expressed in transfected cells
Briefly: [3H]-Spiperone displacement binding in CHO cells transfected with human dopamine D2 receptor. Conditions: [3H]-Spiperone 0.5 nM, CHO cell membranes. On the procedure: CHO cells expressing the human dopamine D2 receptor were cultured in suspension by expansion (every 3-4 days) in a serum free media to provide approximately 7.5×10^5 cells/ml. The cells were harvested by centrifugation (900×g for 10 min.), resuspended in half volume of 1×dulbecco PBS solution at pH 7.4, and after a further recentrifugation, the cell pellet was resuspended in 50 mM Tris.HCl (pH 7.4) containing 1.5 mM CaCl2, 5.0 mM EDTA, 5.0 mM KCl, 120 mM NaCl, 1.0 mM PMSF and 1.0 mg % leupeptin. The cells were homogenized, centrifuged at 40,000×g for 30 minutes and resuspended in fresh buffer (10 ml), and the process repeated twice. […] The binding assay is performed in a 96 well microtiter plate. 100 μl of buffer is added to the wells, and those receiving a displacer for nonspecific binding (NSB) assessment or test compounds receive 80 μl of incubation buffer. […] The reaction is initiated by the addition of 80 μl of the tissue membrane, and after 120 minutes at room temperature the wells are harvested using a Brandell® Harvester onto glass fiber filter presoaked in 0.1% polyethylimine.

Where a name gives a salt, the structure may show the parent alone.

T2 sequence (P31652 whole entry): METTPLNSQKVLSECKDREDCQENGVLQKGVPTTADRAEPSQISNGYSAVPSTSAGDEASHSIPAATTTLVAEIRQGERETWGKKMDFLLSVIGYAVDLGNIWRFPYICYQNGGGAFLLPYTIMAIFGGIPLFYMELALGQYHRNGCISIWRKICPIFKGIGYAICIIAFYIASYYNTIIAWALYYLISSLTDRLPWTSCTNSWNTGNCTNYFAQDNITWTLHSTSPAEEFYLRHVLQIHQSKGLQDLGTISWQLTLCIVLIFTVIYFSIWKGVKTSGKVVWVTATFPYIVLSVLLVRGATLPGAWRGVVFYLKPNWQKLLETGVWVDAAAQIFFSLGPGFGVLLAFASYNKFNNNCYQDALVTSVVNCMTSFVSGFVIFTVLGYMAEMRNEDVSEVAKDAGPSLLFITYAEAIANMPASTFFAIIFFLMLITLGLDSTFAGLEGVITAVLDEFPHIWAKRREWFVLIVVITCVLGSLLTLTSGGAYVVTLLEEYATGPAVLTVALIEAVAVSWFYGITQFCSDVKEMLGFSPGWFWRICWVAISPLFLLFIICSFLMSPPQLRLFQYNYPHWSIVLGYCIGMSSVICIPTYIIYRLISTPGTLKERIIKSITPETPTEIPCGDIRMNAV
T3 sequence (P14416 whole entry): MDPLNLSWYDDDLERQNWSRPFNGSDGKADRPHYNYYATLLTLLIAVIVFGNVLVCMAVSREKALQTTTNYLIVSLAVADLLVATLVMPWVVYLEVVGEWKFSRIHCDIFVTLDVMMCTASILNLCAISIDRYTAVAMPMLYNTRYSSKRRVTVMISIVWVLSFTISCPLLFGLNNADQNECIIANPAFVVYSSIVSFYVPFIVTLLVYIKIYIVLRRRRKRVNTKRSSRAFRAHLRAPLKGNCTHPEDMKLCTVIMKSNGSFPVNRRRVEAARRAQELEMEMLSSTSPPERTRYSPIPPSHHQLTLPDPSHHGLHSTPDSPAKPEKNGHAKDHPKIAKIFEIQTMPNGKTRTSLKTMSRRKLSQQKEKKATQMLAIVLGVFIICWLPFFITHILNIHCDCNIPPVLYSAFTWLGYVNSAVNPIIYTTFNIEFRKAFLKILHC

Consider `OC(COc1ccc(F)cc1)CN1CCN(c2cccc3[nH]ccc23)CC1` (stereo not shown) (as salt: fumaric acid salt) [Example 6, 1-(4-Fluoro-phenoxy)-3-[4-(1H-indol-4-yl)piperazin-1-yl]-propan-2-ol], for which the melting point was in the range of 234 to 235 °C.

In turn, `COc1ccc(OCC(O)CN2CCN(c3cccc4[nH]ccc34)CC2)cc1` (stereo not shown) [Example 3, 1-[4-(1H-Indol-4-yl)-piperazin-1-yl]-3-(4-methoxy-phenoxy)-propan-2-ol] yielded a Ki at human 5HT1A receptor of 1.8 nM. Also, on serotonin transporter, the inhibition at 0.1 µM is 17%.

Regarding `OC(COc1ccccc1-c1ccccc1)CN1CCN(c2cccc3[nH]ccc23)CC1` (stereo not shown) [Example 8, 1-(Biphenyl-2-yloxy)-3-[4-(1H-indol-4-yl)piperazin-1-yl]-propan-2-ol], the affinity at human 5HT1A receptor corresponds to a Ki of 4.5 nM. Also, the inhibition at 0.1 µM at serotonin transporter was found to be 0%.

For the compound `OC(COc1ccccc1-c1ccccc1)CN1CCN(c2cccc3[nH]ccc23)CC1` (stereo not shown) (as salt: fumaric acid salt) [Example 8, 1-(Biphenyl-2-yloxy)-3-[4-(1H-indol-4-yl)piperazin-1-yl]-propan-2-ol], the melting point was in the range of 214 to 215 °C.

`O=[N+]([O-])c1ccc(OCC(O)CN2CCN(c3cccc4[nH]ccc34)CC2)cc1` (stereo not shown) (as salt: HCl) [Example 4, 1-[4-(1H-Indol-4-yl)-piperazin-1-yl]-3-(4-nitro-phenoxy)-propan-2-ol] gave a melting point of 248 °C.

For `OC(COc1cccc2[nH]ccc12)CN1CCN(c2cccc3[nH]ccc23)CC1` (stereo not shown) (as salt: fumaric acid salt) [Example 1, 1-(1H-Indol-4-yloxy)-3-[4-(1H-indol-4-yl)piperazin-1-yl]-propan-2-ol], the melting point lay within 147 to 150 °C.

On to `NC(=O)c1cc2c(OCC(O)CN3CCN(c4cccc5[nH]ccc45)CC3)cccc2[nH]1` (stereo not shown) [Example 7, 4 {2-Hydroxy-3-[4-(1H-indol-4-yl)-piperazin-1-yl]propoxy}-1H-indole-2-carboxylic acid amide], for which, on human 5HT1A receptor, the Ki was 7.2 nM. In addition, the inhibition at 0.1 µM at serotonin transporter was found to be 3%.

As to `OC(COc1ccc(F)cc1)CN1CCN(c2cccc3[nH]ccc23)CC1` (stereo not shown) [Example 6, 1-(4-Fluoro-phenoxy)-3-[4-(1H-indol-4-yl)piperazin-1-yl]-propan-2-ol], the Ki (in series [1]; at human 5HT1A receptor) was 10.4 nM throughout. The inhibition at 0.1 µM at serotonin transporter was 0%.

For the compound `OC(COc1cccc2[nH]ccc12)CN1CCN(c2cccc3[nH]ccc23)CC1` (stereo not shown) [Example 1, 1-(1H-Indol-4-yloxy)-3-[4-(1H-indol-4-yl)piperazin-1-yl]-propan-2-ol], the inhibitory constant (Ki) on human 5HT1A receptor was determined as 6 nM. The inhibition at 0.1 µM at serotonin transporter was found to be 32%.

Regarding `OC(COc1ccc(Cl)cc1)CN1CCN(c2cccc3[nH]ccc23)CC1` (stereo not shown) [Example 2, 1-(4-Chloro-phenoxy)-3-[4-(1H-indol-4-yl)piperazin-1-yl]-propan-2-ol], the Ki in series [1] was found to be 33.5 nM; on human 5HT1A receptor it was 7.6 nM. At serotonin transporter, the inhibition at 0.1 µM worked out at 13%.

`OC(COc1ccccc1Cl)CN1CCN(c2cccc3[nH]ccc23)CC1` (stereo not shown) (as salt: fumaric acid salt) [Example 5, 1-(2-Chloro-phenoxy)-3-[4-(1H-indol-4-yl)piperazin-1-yl]-propan-2-ol] registered a melting point of 207 °C.

For the compound `OC(COc1ccc(Cl)cc1)CN1CCN(c2cccc3[nH]ccc23)CC1` (stereo not shown) (as salt: fumaric acid salt) [Example 2, 1-(4-Chloro-phenoxy)-3-[4-(1H-indol-4-yl)piperazin-1-yl]-propan-2-ol], the melting point is 224 to 225 °C.

Take `OC(COc1ccccc1Cl)CN1CCN(c2cccc3[nH]ccc23)CC1` (stereo not shown) [Example 5, 1-(2-Chloro-phenoxy)-3-[4-(1H-indol-4-yl)piperazin-1-yl]-propan-2-ol]: the Ki in series [1] was 31.9 nM; at human 5HT1A receptor it was 12.1 nM. In addition, at serotonin transporter, the inhibition at 0.1 µM amounted to 11%.

Compound `O=[N+]([O-])c1ccc(OCC(O)CN2CCN(c3cccc4[nH]ccc34)CC2)cc1` (stereo not shown) [Example 4, 1-[4-(1H-Indol-4-yl)-piperazin-1-yl]-3-(4-nitro-phenoxy)-propan-2-ol] displayed a Ki on human 5HT1A receptor of 8.8 nM. The inhibition at 0.1 µM on serotonin transporter came to 15%.
